# Read-outs that look alike come from different tables or passages of the source.
# Tests used:
# [1] = test system: A549 (lung carcinoma) xenografts; experiment: A549 human lung carcinoma xenograft study in nude athymic mice; assay type: in vivo
# From the text: Xenografts for human lung cancer are set-up in groups of nude, athymic mice. The cell line selected was A549 (ATCC number CCL-185), a lung carcinoma.
# [2] = test system: human tumours; conditions: phase I monotherapy, cited from earlier work
# [3] = with thalidomide, cited from earlier work
# [4] = test system: glucoronidation and 6-methylhydroxylation of DMXAA in mouse liver microsomes; conditions: diclofenac 100 μM; cited from earlier work
# [5] = test system: glucoronidation and 6-methylhydroxylation of DMXAA in human liver microsomes; conditions: diclofenac 100 μM; cited from earlier work
# [6] = diclofenac 100 mg/kg i.p., cited from earlier work
compound,measurement,setting,value
"Cc1ccc2c(=O)c3cccc(CC(=O)O)c3oc2c1C [DMXAA, 5,6-dimethylxanthenone-4-acetic acid]",Drug deaths,"[1]; A549 xenografts, DMXAA 21 mg/kg, Erbitux 33 mg/kg by injection, deaths/mice per group",2/10
same,Response CR,"[1]; Complete Response (cure; undetectable tumour over two weeks), Table 2",0
same,Response PD,"[1]; Progressive Disease (≧50% increase in tumour size), Table 2",2/10
same,Response SD,"[1]; Stable Disease (does not satisfy criteria for PR or PD), Table 2",16
same,Tumour Growth Delay,[1]; difference in days for treated versus control tumours to quadruple in volume,16 days
same,TTP,[1]; median time to disease progression,16 days
same,Regression Duration,[1]; number of days that tumour volume is less than the original treatment volume,0 days
same,Median VQT (Range; days),"[1]; tumour volume quadrupling time, A549 xenografts",48 days
same,tumour blood flow (dynamic MRI),[2]; well-tolerated doses,significant reduction in tumour blood flow
same,tumour responses,[2],very few tumour responses
"O=C1CCC(N2C(=O)c3ccccc3C2=O)C(=O)N1 (stereo not drawn) [Thalidomide, thalidomide]",increase of the AUC of DMXAA,[3]; liver,1.8 times
same,increase of the AUC of DMXAA,[3]; plasma,1.8 times
same,increase of the AUC of DMXAA,[3]; spleen,1.8 times
same,increase of the AUC of DMXAA,[3]; tumour,three times
O=C(O)Cc1ccccc1Nc1c(Cl)cccc1Cl [diclofenac],inhibition of 6-methylhydroxylation of DMXAA,[4],> 54%
same,inhibition of glucoronidation of DMXAA,[4],> 70%
same,inhibition of 6-methylhydroxylation of DMXAA,[5],> 54%
same,inhibition of glucoronidation of DMXAA,[5],> 70%
same,increase in the plasma DMXAA AUC,[6]; female mice,31%
same,increase in DMXAA T1/2,"[6]; male and female mice, P<0.05",threefold increase
same,increase in the plasma DMXAA AUC,[6]; male mice,24%

# Reference: patent US20100104565A1, “COMBINATIONS COMPRISING DMXAA FOR THE TREATMENT OF CANCER” (ANTISOMA RESEARCH LIMITED, priority 2005, published 2010)
